Legend:
[1] = system: morningglory; test: Test B pre/postemergence morningglory; format: in vivo, Ipomoea hederacea
In short: (§1)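 Response is a visual 0-to-10 score relative to untreated plants, where 0 means no effect and 10 means complete control, taken twelve to sixteen days after application. Treatments went onto soil at planting and onto foliage of 1- to 4-leaf plants, using a surfactant-containing non-phytotoxic solvent.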

[2] = system: purple nutsedge; test: Test B pre/postemergence purple nutsedge; format: in vivo, Cyperus rotundus; conditions: Postemergence
In short: as §1

[3] = system: pigweed; test: Test B pre/postemergence pigweed; format: in vivo, Amaranthus retroflexus
In short: as §1

[4] = system: blackgrass; test: Test B pre/postemergence blackgrass; format: in vivo, Alopecurus myosuroides
In short: as §1

[5] = system: soybean; test: Test B pre/postemergence soybean; format: in vivo, Glycine max
In short: as §1

[6] = system: wheat; test: Test B pre/postemergence wheat; format: in vivo, Triticum aestivum
In short: as §1

[7] = system: bedstraw; test: Test B pre/postemergence bedstraw; format: in vivo, Galium aparine
In short: as §1

[8] = system: wild oat; test: Test B pre/postemergence wild oat; format: in vivo, Avena fatua
In short: as §1

[9] = system: duck salad; test: Test B flood test duck salad; format: in vivo, Heteranthera limosa
In short: (§2)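 Flood test on plants grown to the 2-leaf stage; treated plants kept in greenhouse twelve to sixteen days, then visually rated against controls on a 0 (no effect) to 10 (complete control) scale.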

[10] = system: crabgrass; test: Test B pre/postemergence crabgrass; format: in vivo, Digitaria sanguinalis
In short: as §1

[11] = system: corn; test: Test B pre/postemergence corn; format: in vivo, Zea mays
In short: as §1

[12] = system: velvetleaf; test: Test B pre/postemergence velvetleaf; format: in vivo, Abutilon theophrasti
In short: as §1

[13] = system: surinam grass; test: Test B pre/postemergence surinam grass; format: in vivo, Brachiaria decumbens
In short: as §1

[14] = system: rape; test: Test B pre/postemergence rape; format: in vivo, Brassica napus
In short: as §1

[15] = system: rice; test: Test B flood test rice; format: in vivo, Oryza sativa
In short: as §2

[16] = system: giant foxtail; test: Test B pre/postemergence giant foxtail; format: in vivo, Setaria faberii
In short: as §1

[17] = Postemergence, Rate 250 g/ha, scale 0 to 10, 0 no effect, 10 complete control
[18] = Postemergence, Rate 1000 g/ha, scale 0 to 10 (0 no effect, 10 complete control)
[19] = Preemergence, Rate 125 g/ha, scale 0 to 10 (0 no effect, 10 complete control)
[20] = Preemergence, Rate 250 g/ha, scale of 0 to 10 where 0 is no effect and 10 is complete control
[21] = Preemergence, Rate 500 g/ha, scale 0 (no effect) to 10 (complete control)
[22] = Rate 125 g/ha, Postemergence, scale 0 to 10, 0 no effect, 10 complete control
[23] = Rate 500 g/ha, Postemergence, 0 to 10 scale (0 no effect, 10 complete control)
[24] = Rate 1000 g/ha, Preemergence, scale 0 to 10 (0 no effect, 10 complete control)
[25] = Rate 125 g/ha, Postemergence section (flood test species), scale 0 to 10, 0 no effect, 10 complete control
[26] = Rate 500 g/ha, Postemergence section of Table B, 0 to 10 scale (0 no effect, 10 complete control)
[27] = flood test, listed under Postemergence, Rate 250 g/ha, scale 0 to 10, 0 no effect, 10 complete control

CCN(CC)C(=O)n1oc(=O)n(-c2c(C)cccc2C)c1=O [Compound 2]
Morningglory plant response rating [1, 17]: 0
Morningglory plant response rating [1, 18]: 5
Plant response rating, Morningglory [1, 19]: 0
Plant response rating, Morningglory [1, 20]: 0
Morningglory plant response rating [1, 21]: 0
Morningglory plant response rating [1, 22]: 0
Morningglory plant response rating [1, 23]: 0
Plant response rating, Morningglory [1, 24]: 0
Nutsedge plant response rating ([2]; Rate 250 g/ha, scale 0 to 10, 0 no effect, 10 complete control): 0
Nutsedge plant response rating ([2]; Rate 1000 g/ha, scale 0 to 10 (0 no effect, 10 complete control)): 0
Nutsedge plant response rating ([2]; Rate 125 g/ha, scale 0 to 10, 0 no effect, 10 complete control): 0
Nutsedge plant response rating ([2]; Rate 500 g/ha, 0 to 10 scale (0 no effect, 10 complete control)): 0
Redroot pigweed plant response rating [3, 17]: 0
Redroot pigweed plant response rating [3, 18]: 0
Plant response rating, Redroot pigweed [3, 19]: 0
Plant response rating, Redroot pigweed [3, 20]: 0
Redroot pigweed plant response rating [3, 21]: 0
Redroot pigweed plant response rating [3, 22]: 0
Redroot pigweed plant response rating [3, 23]: 0
Plant response rating, Redroot pigweed [3, 24]: 0
Blackgrass plant response rating [4, 17]: 4
Blackgrass plant response rating [4, 18]: 9
Plant response rating, Blackgrass [4, 19]: 0
Plant response rating, Blackgrass [4, 20]: 0
Blackgrass plant response rating [4, 21]: 0
Blackgrass plant response rating [4, 22]: 0
Blackgrass plant response rating [4, 23]: 8
Plant response rating, Blackgrass [4, 24]: 7
Soybean plant response rating [5, 17]: 1
Soybean plant response rating [5, 18]: 4
Plant response rating, Soybean [5, 19]: 0
Plant response rating, Soybean [5, 20]: 0
Soybean plant response rating [5, 21]: 0
Soybean plant response rating [5, 22]: 0
Plant response rating, Soybean [5, 24]: 3
Wheat plant response rating [6, 17]: 0
Wheat plant response rating [6, 18]: 0
Plant response rating, Wheat [6, 19]: 0
Plant response rating, Wheat [6, 20]: 0
Wheat plant response rating [6, 21]: 0
Wheat plant response rating [6, 22]: 0
Plant response rating, Wheat [6, 24]: 0
Bedstraw plant response rating [7, 17]: 0
Bedstraw plant response rating [7, 18]: 0
Plant response rating, Bedstraw [7, 19]: 0
Plant response rating, Bedstraw [7, 20]: 0
Bedstraw plant response rating [7, 21]: 0
Bedstraw plant response rating [7, 22]: 0
Bedstraw plant response rating [7, 23]: 0
Plant response rating, Bedstraw [7, 24]: 0
Wild oats plant response rating [8, 17]: 0
Wild oats plant response rating [8, 18]: 0
Plant response rating, Wild oats [8, 19]: 0
Plant response rating, Wild oats [8, 20]: 0
Wild oats plant response rating [8, 21]: 0
Wild oats plant response rating [8, 22]: 0
Plant response rating, Wild oats [8, 24]: 4
Ducksalad plant response rating [9, 18]: 0
Ducksalad plant response rating [9, 25]: 0
Ducksalad plant response rating [9, 26]: 0
Ducksalad plant response rating [9, 27]: 0
Crabgrass plant response rating [10, 17]: 0
Crabgrass plant response rating [10, 18]: 4
Plant response rating, Crabgrass [10, 19]: 0
Plant response rating, Crabgrass [10, 20]: 0
Crabgrass plant response rating [10, 21]: 0
Crabgrass plant response rating [10, 22]: 0
Crabgrass plant response rating [10, 23]: 0
Plant response rating, Crabgrass [10, 24]: 6
Corn plant response rating [11, 17]: 3
Corn plant response rating [11, 18]: 8
Plant response rating, Corn [11, 19]: 4
Plant response rating, Corn [11, 20]: 6
Corn plant response rating [11, 21]: 7
Corn plant response rating [11, 22]: 0
Corn plant response rating [11, 23]: 6
Plant response rating, Corn [11, 24]: 8
Velvetleaf plant response rating [12, 17]: 0
Velvetleaf plant response rating [12, 18]: 0
Plant response rating, Velvetleaf [12, 19]: 0
Plant response rating, Velvetleaf [12, 20]: 0
Velvetleaf plant response rating [12, 21]: 0
Velvetleaf plant response rating [12, 22]: 0
Plant response rating, Velvetleaf [12, 24]: 2
B. signalgrass plant response rating [13, 17]: 0
B. signalgrass plant response rating [13, 18]: 2
Plant response rating, B. signalgrass [13, 19]: 0
Plant response rating, B. signalgrass [13, 20]: 0
B. signalgrass plant response rating [13, 21]: 0
B. signalgrass plant response rating [13, 22]: 0
B. signalgrass plant response rating [13, 23]: 0
Plant response rating, B. signalgrass [13, 24]: 6
Rape plant response rating [14, 17]: 0
Rape plant response rating [14, 18]: 0
Plant response rating, Rape [14, 19]: 0
Plant response rating, Rape [14, 20]: 0
Rape plant response rating [14, 21]: 0
Rape plant response rating [14, 22]: 0
Rape plant response rating [14, 23]: 0
Plant response rating, Rape [14, 24]: 0
Rice plant response rating [15, 18]: 0
Rice plant response rating [15, 25]: 0
Rice plant response rating [15, 26]: 0
Rice plant response rating [15, 27]: 0
Giant foxtail plant response rating [16, 17]: 7
Giant foxtail plant response rating [16, 18]: 8
Plant response rating, Giant foxtail [16, 19]: 6
Plant response rating, Giant foxtail [16, 20]: 7
Giant foxtail plant response rating [16, 21]: 7
Giant foxtail plant response rating [16, 22]: 0
Giant foxtail plant response rating [16, 23]: 7
Plant response rating, Giant foxtail [16, 24]: 10

Source: patent US6737383B1, “Herbicidal oxadiazolidines” (priority 1999, dated 2004)
